Patent US12065443B2, “Compounds and pharmaceutical compositions thereof for the treatment of diseases” (priority 2017, dated 2024)
Like-named read-outs stand apart in the source and are kept apart here.

Columns and labels:
[1] = tested on: LPS-induced TNFα secretion in monocyte-derived macrophages (MdM); test: MdM assay: LPS-triggered TNFα (ELISA); assay type: cell-based, human; details: LPS-triggered TNFα inhibition
Experimental: This assay evaluates illustrative compounds of the invention for their inhibition of LPS-induced TNFα and LPS triggered IL-10 secretion in monocyte-derived macrophages.
PBMCs are isolated from human blood samples (buffycoats). The buffy coat is aseptically transferred into a 50 mL Falcon tube, and diluted 1/2 in PBS. Falcon tubes are filled with 20 mL Lymphoprep™, on top of which 25 mL of the buffy coat is carefully added, tubes are centrifuged for 35 min at 400 g in temperature controlled centrifuge, without brake, at 25° C. PBMCs are aspirated from the white interface layer between sample and Lymphoprep™. PBMCs are washed five times in PBS.
PBMCs are centrifuged at 300×g for 10 min and resuspended at a density of 1.0E07 cells/80 μL Miltenyi buffer (PBS, pH 7.4, 1% FBS, 2 mM EDTA).
Starting from this point of the protocol all steps are performed on ice. 20 μL of CD14+ micro-beads are added per 1.0E07 cells, the tube is mixed and incubated for 15 min in the fridge at 4° C. Cell suspension volume is adjusted to total volume of 100 mL using Miltenyi buffer, mixed gently and subsequently centrifuged for 10 min at 300× g. Supernantant is discarded and cell pellet is resuspended in 12 mL of Miltenyi buffer.
Four LS columns are placed in the MACS Separator (magnet) from Miltenyi Biotec, and are prewet by rinsing with 3 mL of MACS buffer per column. Three mL of cell suspension is added onto the column (max 1*10^8 of labelled cells/column), and columns are subsequently washed 3 times with 3 mL of Miltenyi buffer.
The columns are removed from the magnets, and 5 mL of Miltenyi buffer are added to the column to flush out the CD14+ fraction by pushing the plunger into the column. The flushed fractions are collected in a fresh 50 mL Falcon and volume is adjusted to 30 mL using Miltenyi buffer, cells are centrifuged for 10 min at 300× g. The obtained cell pellet is resuspended in 10 mL RPMI w/o FBS, and cell density is determined using a hematologic analyser (Sysmex XS-500i).
On day 10, MdMs are triggered and compound is added.
A compound dilution plate is made in 100% DMSO by 3-fold dilution of 10 mM stock solution. An intermediate dilution plate (10× final concentration) is made by diluting the compound dilution plate 50-fold in RPMI medium.
Medium is carefully removed from cell plates using multichannel pipette, and replaced by 80 μL fresh medium. 10 μL of the 10× final concentration compound is added to the cells and incubated for 1 hour at 37° C. before addition of trigger. No trigger conditions/trigger conditions are spiked with equal final DMSO concentrations of 0.2% DMSO. 10 μL of 10×LPS (final conc. 200 ng/mL) solution are added to all wells except for the ‘no trigger wells’ where 10 μL medium is added. Supernatant is collected after 2 h (IL-10 determination) and after 20 h (TNFα determination) of LPS triggering.
The plate is then washed once with PBST (PBS+0.05% Tween20) and once with PBS followed by the addition of 100 μL of blocking buffer (1% Bovine Serum Albumin (BSA)-5% Sucrose) and plates are sealed and incubated for at least 4 h at RT. After washing the plate once with PBST and once with PBS, 40 μL of standard or sample are added (TNFα standard curve is prepared using a 1/2 serial dilution starting from 16000 pg/mL; dilutions are made in dilution buffer (PBS+1% BSA)). Plates are washed twice with PBST, and once with PBS, after which 35 μL of the detection antibody is added (final concentration 0.25 μg/mL diluted in dilution buffer) and plates are incubated for at least 2 h at RT. Plates are washed twice with PBST, and once with PBS, where after 35 μL of Strep-HRP conjugate (0.5 μg/mL final concentration diluted in dilution buffer) is added. Plates are incubated in the dark, at RT for at least 45 min but no longer than 1 hour. Plates are washed twice with PBST, and once with PBS.

[2] = molecular target: T1, SIK3 (Homo sapiens, UniProt Q9Y2K2); test: biochemical
T1 construct: purchased SignalChem S12-11G-100
Summary of the method: (§1)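 Read-out: ^33P incorporated into AMARA peptide, counted on filter plates, taken as kinase activity. Reactions start on addition of labeled/unlabeled ATP to enzyme plus substrate and end with phosphoric acid. Controls: 1% DMSO (negative) and 10 μM staurosporine (positive), final.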

[3] = molecular target: T2, SIK1 (Homo sapiens, UniProt P57059); test: biochemical; details: 33P radioactive SIK kinase assay, AMARA peptide, 10 μM ATP; read-out: SIK1 IC50
T2 construct: purchased Carna Biosciences 02-131
Summary of the method: as §1

[4] = molecular target: T3, SIK2 (Homo sapiens, UniProt Q9H0K1); test: biochemical; details: 33P radioactive SIK kinase assay, AMARA peptide, 10 μM ATP
T3 construct: purchased ThermoFisher Scientific PV4792
Summary of the method: as §1

T3 sequence (Q9H0K1 whole entry): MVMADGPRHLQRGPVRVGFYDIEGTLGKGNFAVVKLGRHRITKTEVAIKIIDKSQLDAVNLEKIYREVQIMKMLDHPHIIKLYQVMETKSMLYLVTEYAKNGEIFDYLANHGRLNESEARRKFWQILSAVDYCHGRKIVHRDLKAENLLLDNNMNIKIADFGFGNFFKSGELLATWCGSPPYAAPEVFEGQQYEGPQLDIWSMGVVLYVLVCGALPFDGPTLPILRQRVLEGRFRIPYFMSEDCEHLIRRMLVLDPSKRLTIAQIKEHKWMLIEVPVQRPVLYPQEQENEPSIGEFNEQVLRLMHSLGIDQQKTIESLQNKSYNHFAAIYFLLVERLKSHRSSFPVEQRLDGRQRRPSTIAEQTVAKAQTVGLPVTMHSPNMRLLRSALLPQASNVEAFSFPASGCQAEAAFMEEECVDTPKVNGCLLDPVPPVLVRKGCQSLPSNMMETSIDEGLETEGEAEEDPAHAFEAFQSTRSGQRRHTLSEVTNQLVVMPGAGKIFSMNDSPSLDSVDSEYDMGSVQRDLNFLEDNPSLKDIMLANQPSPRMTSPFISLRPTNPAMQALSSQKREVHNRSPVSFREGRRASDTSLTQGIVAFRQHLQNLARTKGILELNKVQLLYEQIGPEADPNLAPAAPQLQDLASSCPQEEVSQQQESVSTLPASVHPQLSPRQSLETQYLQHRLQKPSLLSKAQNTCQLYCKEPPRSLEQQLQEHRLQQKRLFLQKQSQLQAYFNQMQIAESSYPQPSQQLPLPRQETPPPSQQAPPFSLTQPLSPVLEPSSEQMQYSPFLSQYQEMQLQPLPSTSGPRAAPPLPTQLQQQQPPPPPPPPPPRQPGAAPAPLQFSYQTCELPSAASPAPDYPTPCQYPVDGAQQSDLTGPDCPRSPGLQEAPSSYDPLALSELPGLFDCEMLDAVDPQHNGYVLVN
T1 sequence (Q9Y2K2 whole entry): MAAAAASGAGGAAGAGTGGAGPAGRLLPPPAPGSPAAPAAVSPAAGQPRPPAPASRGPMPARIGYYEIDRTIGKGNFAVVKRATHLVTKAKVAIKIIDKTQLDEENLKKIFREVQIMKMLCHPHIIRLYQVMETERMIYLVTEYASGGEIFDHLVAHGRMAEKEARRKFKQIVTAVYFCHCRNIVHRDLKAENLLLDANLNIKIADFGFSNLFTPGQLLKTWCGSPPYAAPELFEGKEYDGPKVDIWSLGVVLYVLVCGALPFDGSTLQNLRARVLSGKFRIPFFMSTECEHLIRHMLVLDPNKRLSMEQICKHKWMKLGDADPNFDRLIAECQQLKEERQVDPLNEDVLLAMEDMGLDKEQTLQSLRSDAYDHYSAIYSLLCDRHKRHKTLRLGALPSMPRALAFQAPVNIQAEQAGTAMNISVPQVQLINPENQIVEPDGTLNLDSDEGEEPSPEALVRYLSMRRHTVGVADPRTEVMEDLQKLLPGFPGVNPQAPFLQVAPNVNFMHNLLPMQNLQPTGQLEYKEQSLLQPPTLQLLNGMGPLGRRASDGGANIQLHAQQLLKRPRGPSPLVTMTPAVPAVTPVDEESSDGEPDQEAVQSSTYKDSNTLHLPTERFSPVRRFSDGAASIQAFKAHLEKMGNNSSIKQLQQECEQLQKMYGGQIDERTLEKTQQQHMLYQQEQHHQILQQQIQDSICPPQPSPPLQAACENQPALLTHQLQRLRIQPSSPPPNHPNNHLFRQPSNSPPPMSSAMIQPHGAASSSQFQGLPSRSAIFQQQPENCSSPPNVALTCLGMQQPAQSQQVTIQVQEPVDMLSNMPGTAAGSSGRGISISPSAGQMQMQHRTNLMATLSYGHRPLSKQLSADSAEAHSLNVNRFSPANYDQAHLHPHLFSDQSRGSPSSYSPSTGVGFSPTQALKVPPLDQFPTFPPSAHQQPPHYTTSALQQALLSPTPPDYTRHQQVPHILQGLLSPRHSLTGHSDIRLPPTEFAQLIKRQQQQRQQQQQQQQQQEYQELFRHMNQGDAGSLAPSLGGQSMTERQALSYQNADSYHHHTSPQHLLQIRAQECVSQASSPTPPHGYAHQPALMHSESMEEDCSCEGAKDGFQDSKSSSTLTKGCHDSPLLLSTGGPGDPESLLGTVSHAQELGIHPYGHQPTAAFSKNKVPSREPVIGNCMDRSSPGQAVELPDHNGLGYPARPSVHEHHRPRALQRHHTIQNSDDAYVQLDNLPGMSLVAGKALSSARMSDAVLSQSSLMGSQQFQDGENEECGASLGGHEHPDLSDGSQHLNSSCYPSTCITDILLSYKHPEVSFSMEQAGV
T2 sequence (P57059 whole entry): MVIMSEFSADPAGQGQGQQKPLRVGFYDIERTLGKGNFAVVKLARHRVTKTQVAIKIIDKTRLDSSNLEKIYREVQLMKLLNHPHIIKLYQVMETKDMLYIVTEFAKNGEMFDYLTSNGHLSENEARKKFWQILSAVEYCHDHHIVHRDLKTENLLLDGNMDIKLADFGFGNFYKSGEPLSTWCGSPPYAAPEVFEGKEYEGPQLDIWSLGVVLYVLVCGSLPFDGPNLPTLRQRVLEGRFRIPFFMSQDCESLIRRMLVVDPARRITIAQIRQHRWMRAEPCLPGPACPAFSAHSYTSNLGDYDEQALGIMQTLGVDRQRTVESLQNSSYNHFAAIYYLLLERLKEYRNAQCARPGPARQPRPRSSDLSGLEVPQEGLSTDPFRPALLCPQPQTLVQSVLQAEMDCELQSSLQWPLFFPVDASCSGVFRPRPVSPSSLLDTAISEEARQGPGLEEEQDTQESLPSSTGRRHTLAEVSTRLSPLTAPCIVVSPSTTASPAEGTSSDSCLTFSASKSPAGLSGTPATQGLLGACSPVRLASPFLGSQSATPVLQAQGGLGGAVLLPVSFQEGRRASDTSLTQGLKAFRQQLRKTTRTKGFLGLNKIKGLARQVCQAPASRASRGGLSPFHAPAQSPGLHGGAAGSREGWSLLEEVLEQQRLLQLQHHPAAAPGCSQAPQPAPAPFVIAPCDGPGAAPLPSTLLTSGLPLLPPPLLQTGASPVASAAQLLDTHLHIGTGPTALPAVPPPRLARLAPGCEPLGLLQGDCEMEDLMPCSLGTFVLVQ

Row | Structure (SMILES) | EC50 ([1]; Homo sapiens, Macrophage) [nM] | IC50 [2] [nM] | IC50 [3] [nM] | IC50 [4] [nM] | EC50 [1] [nM] | IC50 ([2]; 33P radioactive SIK kinase assay, AMARA peptide, 15 μM ATP) [nM]
1 | COc1cc(-n2cnc3cc(-c4ccc(N5CCOCC5)nc4)ccc32)cc(OC)c1C(=O)NCC(F)(F)F [compound 32, 2,6-dimethoxy-4-[5-(6-morpholino-3-pyridyl)benzimidazol-1-yl]-N-(2,2,2-trifluoroethyl)benzamide] | 100 to 1000 | 10 to 100 | 10 to 100 | 10 to 100 | – | –
2 | COc1ncc(-c2ccn3c(-c4cc(OC)c(C(=O)NCC(F)(F)F)c(OC)c4)cnc3c2)cn1 [compound 241, 2,6-dimethoxy-4-[7-(2-methoxypyrimidin-5-yl)imidazo[1,2-a]pyridin-3-yl]-N-(2,2,2-trifluoroethyl)benzamide] | 100 to 1000 | 10 to 100 | 100 to 500 | 100 to 500 | – | –
3 | COc1cc(-c2cnc3cc(-c4cnn(C)c4)ccn23)cc(NCCO)c1C(=O)NCC(F)(F)F [compound 205, 2-(2-hydroxyethylamino)-6-methoxy-4-[7-(1-methylpyrazol-4-yl)imidazo[1,2-a]pyridin-3-y 1]-N-(2,2,2-trifluoroethyl)benzamide] | 0.1 to 100 | 0.01 to 10 | 10 to 100 | 0.01 to 10 | – | –
4 | COc1cc(-c2cnc3cc(-c4cnn(CC(=O)OC(C)C)c4)ccn23)cc(OC)c1C(=O)NCC(F)(F)F [Cpd 231, isopropyl 2-[4-[3-[3,5-dimethoxy-4-(2,2,2-trifluoroethyl-carbamoyl)phenyl]imidazo[1,2-a]pyridin-7-yl]pyrazol-1-yl]acetate] | 0.1 to 100 | 0.01 to 10 | 0.01 to 10 | 0.01 to 10 | – | –
5 | CCNC(=O)c1c(OC)cc(-c2cnc3cc(-c4ccc(C#N)nc4)ccn23)cc1OC(F)F [compound 146, 4-[7-(6-cyano-3-pyridyl)imidazo[1,2-a]pyridin-3-yl]-2-(difluoromethoxy)-N-ethyl-6-methoxy-benzamide] | 100 to 1000 | 10 to 100 | 100 to 500 | 10 to 100 | – | –
6 | COc1cc(-n2cnc3cc(-c4ccc(N5CCCC5)nc4)ccc32)cc(OC)c1C(=O)NCC(F)(F)F [compound 34, 2,6-dimethoxy-4-[5-(6-pyrrolidin-1-yl-3-pyridyl)benzimidazol-1-yl]-N-(2,2,2-trifluoroethyl)benzamide] | 100 to 1000 | 10 to 100 | 10 to 100 | 0.01 to 10 | – | –
7 | COc1cc(-c2cnc3cc(-c4cc(C)no4)ccn23)cc(OC)c1C(=O)NCC(F)(F)F [compound 232, 2,6-dimethoxy-4-[7-(3-methylisoxazol-5-yl)imidazo[1,2-a]pyridin-3-yl]-N-(2,2,2-trifluoroethyl)benzamide] | 0.1 to 100 | 0.01 to 10 | 10 to 100 | 0.01 to 10 | – | –
8 | COc1cc(-c2cnc3cc(-c4cnn(CC(=O)OCC5CCC5)c4)ccn23)cc(OC)c1C(=O)NCC(F)(F)F [Cpd 238, cyclobutylmethyl 2-[4-[3-[3,5-dimethoxy-4-(2,2,2-trifluoroethyl-carbamoyl)phenyl]imidazo[1,2-a]pyridin-7-yl]pyrazol-1-yl]acetate] | 0.1 to 100 | 0.01 to 10 | 0.01 to 10 | 0.01 to 10 | – | –
9 | CCNC(=O)c1c(OC)cc(-n2cnc3cc(-c4cccnc4)ccc32)cc1OC [compound 2, N-ethyl-2,6-dimethoxy-4-[5-(3-pyridyl)benzimidazol-1-yl]benzamide] | 1000 to 5000 | 10 to 100 | 100 to 500 | 100 to 500 | – | –
10 | COc1cc(-n2cnc3cc(-n4cnc(C)c4)ccc32)cc(OC)c1C(=O)NCC(F)(F)F [Cpd 155, 2.6-dimethoxy-4-[5-(4-methylimidazol-1-yl)benzimidazol-1-yl]-N-(2,2,2-trifluoroethyl)benzamide] | 1000 to 5000 | 10 to 100 | 100 to 500 | 10 to 100 | – | –
11 | COc1cc(-c2cnc3cc(-c4cnn(CC(=O)OC5CC5)c4)ccn23)cc(OC)c1C(=O)NCC(F)(F)F [compound 234, cyclopropyl 2-[4-[3-[3,5-dimethoxy-4-(2,2,2-trifluoroethyl-carbamoyl)phenyl]imidazo[1,2-a]pyridin-7-yl]pyrazol-1-yl]acelate] | 0.1 to 100 | 0.01 to 10 | 0.01 to 10 | 0.01 to 10 | – | –
12 | CCNC(=O)c1c(OC)cc(-c2cnc3cc(-c4cnn(C5CCNCC5)c4)ccn23)cc1OC(F)F [compound 149, 2-(difluoromethoxy)-N-ethyl-6-methoxy-4-[7-[1-(4-piperidyl)pyrazol-4-yl]imidazo[1,2-a]pyridin-3-yl]benzamide] | 100 to 1000 | 0.01 to 10 | 0.01 to 10 | 0.01 to 10 | – | –
13 | COc1cc(-n2cnc3cc(-c4cnn(C)c4)ccc32)cc(OC)c1C(=O)N[C@@H]1C[C@H]1CO [compound 156, N-[(1R,2R)-2-(hydroxymethyl)cyclopropyl]-2,6-dimethoxy-4-[5-(1-methylpyrazol-4-yl)benzimidazol-1-yl]benzamide] | 1000 to 5000 | 10 to 100 | 10 to 100 | 10 to 100 | – | –
14 | CCn1cc(-c2ccc3c(c2)ncn3-c2cc(OC)c(C(=O)NC3CCC3)c(OC)c2)cn1 [compound 26, N-cyclobutyl-4-[5-(1-ethylpyrazol-4-yl)benzimidazol-1-yl]-2,6-dimethoxy-benzamide] | 100 to 1000 | 10 to 100 | 10 to 100 | 10 to 100 | – | –
15 | COC(=O)C(C)n1cc(-c2ccn3c(-c4cc(OC)c(C(=O)NCC(F)(F)F)c(OC)c4)cnc3c2)cn1 (stereo not drawn) [compound 244, methyl 2-[4-[3-[3,5-diinethoxy-4-(2,2,2-trifluoroethyl-carbamoyl)phenyl]imidazo[1,2-a]pyridin-7-yl]pyrazol-1-yl]propanoate] | – | – | 0.01 to 10 | 0.01 to 10 | 0.1 to 100 | 0.01 to 10
16 | COc1cc(-n2cnc3cc(-c4cn(C)nn4)ccc32)cc(OC)c1C(=O)NCC(F)(F)F [compound 160, 2,6-dimethoxy-4-[5-(1-methyltriazol-4-yl)benzimidazol-1-yl]-N-(2,2,2-trifluoroethyl)benzamide] | 100 to 1000 | 10 to 100 | 10 to 100 | 10 to 100 | – | –
17 | COC(=O)Cn1cc(-c2ccn3c(-c4cc(OC)c(C(=O)NCC(F)(F)F)c(OC)c4)cnc3c2)cn1 [Cpd 236, methyl 2-[4-[3-[3,5-dimethoxy-4-(2,2,2-trifluoroethyl-carbamoyl)phenyl]imidazo[1,2-a]pyridin-7-yl]pyrazol-1-yl]acetate] | 0.1 to 100 | 0.01 to 10 | 0.01 to 10 | 0.01 to 10 | – | –
18 | COc1cc(-n2cnc3cc(-c4cnn(C)c4)ccc32)cc(OC)c1C(=O)NC1CCCC[C@H]1N (stereo in doubt) [compound 139, N-[(1R,2R)-2-aminocyclohexyl]-2,6-dimethoxy-4-[5-(1-methylpyrazol-4-yl)benzimidazol-1-yl]benzamide] | 1000 to 5000 | 0.01 to 10 | 0.01 to 10 | 0.01 to 10 | – | –
